In the assay the target is T1, GST-RIPK1 (recombinant GST-RIPK1 kinase domain (residues 1-327)) (Homo sapiens, UniProt Q13546).
T1 construct: recombinant GST-RIPK1 kinase domain (residues 1-327) enzyme produced from baculovirus-transfected Sf21 cells; host or cells: baculovirus-transfected Sf21 insect cells
T1 sequence (Q13546 1-327): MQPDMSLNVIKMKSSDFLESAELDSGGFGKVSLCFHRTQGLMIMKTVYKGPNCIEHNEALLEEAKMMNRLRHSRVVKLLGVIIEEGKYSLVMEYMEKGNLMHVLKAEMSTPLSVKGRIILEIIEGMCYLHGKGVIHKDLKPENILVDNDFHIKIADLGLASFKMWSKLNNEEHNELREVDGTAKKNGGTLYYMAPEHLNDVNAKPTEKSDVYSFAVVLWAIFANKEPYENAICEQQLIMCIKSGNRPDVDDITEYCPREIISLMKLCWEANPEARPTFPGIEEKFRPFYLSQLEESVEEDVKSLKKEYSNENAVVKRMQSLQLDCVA
In words: RIPK1-ADP-Glo Enzymatic Assay. Format: biochemical. The conditions noted are these: ten-point titration, top compound concentration of 100000 nM; 25 nM GST-RIPK1, 300 μM ATP, 3 μM dephosphorylated-MBP; 30 min pre-incubation, 150 min reaction. The method in brief:
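ADP-Glo luminescence quantifies ADP formed over 150 minutes by 25 nM Sf21-produced GST-RIPK1 (1-327) using 300 μM ATP and 3 μM dephosphorylated MBP, following 30-minute compound preincubation at 1% DMSO. Ten-point 1:3 series from 100000 nM gave EC50 via four-parameter sigmoidal regression.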
Background: ADP-Glo first removes unused ATP, then detects ADP through luciferase.

Each structure is given as a SMILES string.

Turning to `COc1ccc2cc(COC3CC4(C3)OC3CC[C@@H](c5cnccn5)N3C4=O)cc(C)c2n1` (stereo partly drawn) [Example 18.89, (5′S)-3-[(2-methoxy-8-methylquinolin-6-yl)methoxy]-5′-(pyrazin-2-yl)tetrahydro-3′H-spiro[cyclobutane-1,2′-pyrrolo[2,1-b][1,3]oxazol]-3′-one], the EC50 stood at 238 nM.
The value for `Cc1cn(-c2cc(OC3CC4(C3)O[C@@H]3CC[C@@H](c5cc(F)cc(F)c5)N3C4=O)ncn2)cn1` (single isomer, unassigned) [Example 9.9] was 475 nM.
For the compound `O=C1N2[C@@H](CC[C@H]2c2cncc(F)c2)OC12CCC(Oc1ccccc1)CC2` (single isomer, unassigned) [Example 16.3, (1r or s),(5′S,7a′R)-5′-(5-fluoropyridin-3-yl)-4-phenoxytetrahydro-3′H-spiro[cyclohexane-1,2′-pyrrolo[2,1-b]oxazol]-3′-one], the EC50 was determined as 62 nM.
With `Cn1ccc([C@@H]2CC[C@H]3OC4(CC(Oc5cnccn5)C4)C(=O)N32)n1` (stereo partly drawn) [Example 9.64, (5′S,7a′R)-5′-(1-methyl-1H-pyrazol-3-yl)-3-[(pyrazin-2-yl)oxy]tetrahydro-3′H-spiro[cyclobutane-1,2′-pyrrolo[2,1-b][1,3]oxazol]-3′-one] the figure was 124 nM; with `O=C1N2C(CC[C@H]2c2cnccn2)OC12CC(OCc1cc(Cl)ccc1-c1cnco1)C2` (stereo partly drawn) [Example 18.82, (5′S)-3-{[5-chloro-2-(1,3-oxazol-5-yl)phenyl]methoxy}-5′-(pyrazin-2-yl)tetrahydro-3′H-spiro[cyclobutane-1,2′-pyrrolo[2,1-b][1,3]oxazol]-3′-one], 99 nM; with `O=C1N2[C@@H](CC[C@H]2c2cc(F)cc(F)c2)O[C@]12C[C@H](Oc1cc(-c3nn[nH]n3)ccn1)C2` [Example 10.3, (1r,3R,5′S,7a′R)-3-((4-(2H-tetrazol-5-yl)pyridin-2-yl)oxy)-5′-(3,5-difluorophenyl)tetrahydro-3′H-spiro[cyclobutane-1,2′-pyrrolo[2,1-b]oxazol]-3′-one], 11 nM.
For `N#Cc1cc(O[C@H]2C[C@@]3(C2)O[C@@H]2CC[C@@H](c4cnccn4)N2C3=O)ncn1` [Example 9.42, 6-(((5′S,7a′R)-3′-oxo-5′-(pyrazin-2-yl)tetrahydro-3′H-spiro[cyclobutane-1,2′-pyrrolo[2,1-b]oxazol]-3-yl)oxy)pyrimidine-4-carbonitrile], the EC50 was found to be 21 nM.
`O=C1N2[C@@H](CC[C@H]2c2ccccc2)OC12CC(Oc1cccc(F)c1)C2` (stereo partly drawn) [Example 8.10, (5′S,7a′R)-3-(3-fluorophenoxy)-5′-phenyltetrahydro-3′H-spiro[cyclobutane-1,2′-pyrrolo[2,1-b][1,3]oxazol]-3′-one]: the EC50 worked out at 11 nM.
The value for `N#Cc1ncccc1O[C@H]1C[C@@]2(C1)O[C@@H]1CC[C@@H](c3ccccc3)N1C2=O` [Example 9.14, 3-{[(1r,3R,5′S,7a′R)-3′-oxo-5′-phenyltetrahydro-3′H-spiro[cyclobutane-1,2′-pyrrolo[2,1-b][1,3]oxazol]-3-yl]oxy}pyridine-2-carbonitrile] was 139 nM; that for `O=C1N2C(CC[C@H]2c2cnccn2)OC12CC(OCc1cnn(-c3ccncc3)c1)C2` (stereo partly drawn) [Example 18.101] was 367 nM; that for `CSc1nnc2ccc(COC3CC4(C3)OC3CC[C@@H](c5cnccn5)N3C4=O)cn12` (stereo partly drawn) [Example 18.16, (5′S)-3-{[3-(methylsulfanyl)[1,2,4]triazolo[4,3-a]pyridin-6-yl]methoxy}-5′-(pyrazin-2-yl)tetrahydro-3′H-spiro[cyclobutane-1,2′-pyrrolo[2,1-b][1,3]oxazol]-3′-one] was 349 nM.
The value for `O=C1N2[C@@H](CC[C@H]2c2ccccc2)OC12CCC(Oc1cnccn1)CC2` (mixture of isomers) [Example 9.52, (5′S,7a′R)-5′-phenyl-4-[(pyrazin-2-yl)oxy]tetrahydro-3′H-spiro[cyclohexane-1,2′-pyrrolo[2,1-b][1,3]oxazol]-3′-one] was 19 nM.

A word on the EC50: it is the midpoint of the concentration-response curve.

Source of the values: patent US20250154173A1 (Merck Sharp & Dohme LLC, priority 2023, published 2025).
